Reference: US20210127673A1, “HERBICIDES” (SYNGENTA PARTICIPATIONS AG, priority 2016, published 2021)

Experiments:
Format in all cases: in vivo
Settings in all cases: 1000 g/ha, evaluated after 13 days
[1] = system: Setaria faberi (SETFA); test: Pre-emergence herbicidal activity, Setaria faberi; parameters: key: 5=total damage to plant; 0=no damage to plant
In short: (§1)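 Damage is rated on a 0–5 scale (0 = no damage, 5 = total damage) 13 days after treatment. Pots of sown seed are sprayed one day after sowing with an aqueous solution from acetone/water (50:50) with 0.5% Tween 20, then kept under controlled glasshouse conditions.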

[2] = system: Triticum aestivium (TRZAW); test: Pre-emergence herbicidal activity, Triticum aestivium; parameters: key: 5=total damage to plant; 0=no damage to plant
In short: as §1

[3] = system: Alopecurus myosuroides (ALOMY); test: Post-emergence herbicidal activity, Alopecurus myosuroides; parameters: key: 5=total damage to plant; 0=no damage to plant
In short: (§2)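 Glasshouse post-emergence spray test: seedlings treated at 8 days after sowing with compound formulated in 50:50 acetone/water plus 0.5% Tween 20, then grown on at 24/16 °C, 14 h light, 65% humidity. Injury rated 13 days later, 0 = no damage, 5 = total damage.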

[4] = system: Echinochloa crus-galli (ECHCG); test: Post-emergence herbicidal activity, Echinochloa crus-galli; parameters: key: 5=total damage to plant; 0=no damage to plant
In short: as §2

[5] = system: Lolium perenne (LOLPE); test: Post-emergence herbicidal activity, Lolium perenne
In short: as §2

[6] = system: Setaria faberi (SETFA); test: Post-emergence herbicidal activity, Setaria faberi; parameters: key: 5=total damage to plant; 0=no damage to plant
In short: as §2

[7] = system: Avena fatua (AVEFA); test: Pre-emergence herbicidal activity, Avena fatua; parameters: key: 5=total damage to plant; 0=no damage to plant
In short: as §1

[8] = system: Lolium perenne (LOLPE); test: Pre-emergence herbicidal activity, Lolium perenne; parameters: key: 5=total damage to plant; 0=no damage to plant
In short: as §1

[9] = system: Alopecurus myosuroides (ALOMY); test: Pre-emergence herbicidal activity, Alopecurus myosuroides; parameters: key: 5=total damage to plant; 0=no damage to plant
In short: as §1

[10] = system: Triticum aestivium (TRZAW); test: Post-emergence herbicidal activity, Triticum aestivium; parameters: key: 5=total damage to plant; 0=no damage to plant
In short: as §2

[11] = system: Echinochloa crus-galli (ECHCG); test: Pre-emergence herbicidal activity, Echinochloa crus-galli
In short: as §1

[12] = system: Avena fatua (AVEFA); test: Post-emergence herbicidal activity, Avena fatua
In short: as §2

Structure (SMILES) | Control of SETFA after pre-emergence application (score 0-5) [1] | Control of TRAZW after pre-emergence application (score 0-5) [2] | Control of ALOMY after post-emergence application (score 0-5) [3] | Control of ECHCG after post-emergence application (score 0-5) [4] | Control of LOLPE after post-emergence application (score 0-5) [5] | Control of SETFA after post-emergence application (score 0-5) [6] | Control of AVEFA after pre-emergence application (score 0-5) [7] | Control of LOLPE after pre-emergence application (score 0-5) [8] | Control of ALOMY after pre-emergence application (score 0-5) [9] | Control of TRAZW after post-emergence application (score 0-5) [10] | Control of ECHCG after pre-emergence application (score 0-5) [11] | Control of AVEFA after post-emergence application (score 0-5) [12]
O=C(Nc1ccc(-c2cncc(F)c2)nc1C(F)(F)F)N1CCCCC1 [Compound B51] | 5 | 0 | 0 | 4 | 3 | 5 | 1 | 1 | 0 | 0 | 2 | 3
O=C(Nc1ccc(-c2cncc(F)c2)nc1C(F)(F)F)OCc1ccccc1 [Compound B53] | 4 | 0 | 1 | 5 | 2 | 5 | 1 | 1 | 0 | 1 | 2 | 4
O=C(Nc1ccc(-c2cncc(F)c2)nc1C(F)(F)F)N1CCSCC1 [Compound B54] | 3 | 0 | 1 | 4 | 3 | 4 | 2 | 1 | 0 | 1 | 3 | 4
O=C(Nc1ccc(-c2cncnc2)nc1C(F)(F)F)N1CCOCC1 [Compound B55] | 1 | 0 | 0 | 3 | 1 | 4 | 1 | 0 | 0 | 0 | 1 | 2
CCC(C)OC(=O)Nc1ccc(-c2cncc(F)c2)nc1C(F)(F)F (stereo not drawn) [Compound B56] | 2 | 0 | 0 | 4 | 3 | 4 | 1 | 0 | 0 | 0 | 1 | 3
O=C(Nc1ccc(-c2cncc(F)c2)nc1C(F)(F)F)OCC(F)(F)F [Compound B57] | 3 | 0 | 0 | 4 | 2 | 3 | 1 | 1 | 0 | 0 | 2 | 3
CCCCOC(=O)Nc1ccc(-c2cncc(F)c2)nc1C(F)(F)F [Compound B58] | 2 | 0 | 0 | 3 | 2 | 5 | 1 | 1 | 0 | 0 | 2 | 2
COCCOC(=O)Nc1ccc(-c2cncc(F)c2)nc1C(F)(F)F [Compound B59] | 3 | 0 | 1 | 5 | 3 | 4 | 2 | 2 | 1 | 1 | 4 | 3
COCCNC(=O)Nc1ccc(-c2cncc(F)c2)nc1C(F)(F)F [Compound B60] | 2 | 0 | 1 | 5 | 2 | 5 | 1 | 1 | 0 | 1 | 4 | 2
C#CCOC(=O)Nc1ccc(-c2cncc(F)c2)nc1C(F)(F)F [Compound B61] | 2 | 0 | 1 | 4 | 2 | 4 | 2 | 1 | 1 | 0 | 3 | 2
N#CCCOC(=O)Nc1ccc(-c2cncc(F)c2)nc1C(F)(F)F [Compound B62] | 3 | 0 | 0 | 5 | 2 | 4 | 2 | 1 | 1 | 0 | 3 | 3
O=C(Nc1ccc(-c2cncc(F)c2)nc1C(F)(F)F)N1CCCC1 [Compound B63] | 2 | 0 | 0 | 5 | 2 | 3 | 0 | 0 | 1 | 0 | 2 | 2
